Legend:
[1] = biological target: T1, recombinant mOAZ1 protein (Mus musculus, UniProt P54369); experiment: Electrophoresis of mOAZ1-Polyamine complex (0.01% SDS in running buffer); format: binding; conditions: 200 μM polyamine, 30 min, 20 °C, pH 7.5
T1 construct: Full-length mOAZ1 protein was successfully produced in E. coli; made in house; host or cells: Escherichia coli Rosetta (DE3)
Experimental: The recombinant mOAZ1 protein (1 μg/band) was incubated with 200 μM of a polyamine at room temperature for 30 min. Then the sample was quenched with a loading buffer (200 mM Tris-HCl, pH 6.8, 0.01% bromophenol blue, and 40% glycerol) and applied onto 12% polyacrylamide gel lacking SDS. Electrophoresis was carried out in a running buffer with decreased SDS concentration (25 mM Tris base; 250 mM glycine; and 0.01% SDS) at 70 V. The gel was stained with Coomassie R-250.

[2] = test system: spermine synthase (SpmSy); set-up: method as in PMID 21639123; conditions: cited from earlier work
[3] = test system: +1 frameshifting of eukaryotic OAZ1 mRNA; experiment: Bicistronic β-galactosidase/firefly luciferase +1 frameshift reporter assay; format: cell-based, S. cerevisiae IS532/44d
Description: For this purpose, the earlier developed frameshift reporter system, which includes quadruple S. cerevisiae mutant strain IS532/44d, unable to synthesize and degrade polyamines due to deletion of genes FMS1, SPE1, SPE2, and PAA1, and the plasmids pAC98T-OAZ1-FS and pAC98T-OAZ1-Cont were used. Each of these plasmids bears the reporter gene encoding β-galactosidase and firefly luciferase gene fused with the fragment of eukaryotic OAZ1 containing frameshift site. The plasmid pAC98T-OAZ1-FS contains native eukaryotic OAZ1 fragment, so the efficiency of luciferase synthesis and enzymatic activity depend on the +1 frameshift event. The plasmid pAC98T-OAZ1-Cont contains the eukaryotic OAZ1 fragment with […] replaced by TGG tryptophan codon that enables constitutive synthesis of both β-galactosidase and luciferase whose activity is taken as 100%. Bicistronic assays for frameshifting were performed as described earlier with the following modifications. Yeast transformants of IS532/44d strain were grown on agar plates with the synthetic media containing 0.67% (w/v) Yeast Nitrogen Base without amino acids (Sigma), 2% (w/v) glucose, 2% (w/v) agar, mixture of 19 amino acids without leucine (2 mg/mL each), and adenine (2 mg/mL) at 30 °C for 5–7 days. Then, colonies of yeast transformants were grown in the synthetic media lacking leucine and polyamines for two days. Yeast cultures were diluted to OD600 = 0.1 in 5 mL of synthetic media lacking leucine and supplemented with either Spd, 1-MeSpd, 2-MeSpd, or 3-MeSpd, each at final concentrations of 0.25, 0.5, 1, 2, and 4 mM. Yeast cultures were grown to log phase (OD600 = 0.8–1.4) at 30 °C and harvested by centrifugation, and cell pellets were washed three times with water. Cell pellets were resuspended in 500 μL of buffer containing 60 mM NaH2PO4, 40 mM Na2HPO4, 10 mM KCl, 1 mM MgSO4, 50 mM 2-mercaptoethanol, and 10% glycerol and lysed by vortexing with acid-washed glass beads (Sigma). The lysates were centrifuged (15,000× g, 10 min, 4 °C), and the supernatants were used for β-galactosidase and firefly luciferase reporter gene assays. β-Galactosidase activity was analyzed using ο-nitrophenyl-β-D-galactopyranoside (Sigma) as the substrate in accordance with published protocol. Activity of firefly luciferase was analyzed in 96-well plates using Luciferase Assay System (Promega). Frameshift frequencies were calculated as described.

[4] = test system: spermidine/spermine-N^1-acetyltransferase (SSAT); set-up: method as in PMID 21639123; conditions: cited from earlier work
[5] = test system: 72-mer-2'-O-Me-oligoribonucleotide L-OM, containing the +1 frameshift site, hairpin and pseudoknot of the mOAZ1 mRNA; experiment: RNA melting point (UV thermal denaturation); format: binding, mouse; conditions: for Tm: 1 μM L-OM, 50 mM Tris-HCl pH 7.5, 50 mM NaCl
Experimental: UV thermal denaturation data were obtained on a Hitachi U-2900 spectrophotometer equipped with a Peltier temperature controller. The concentration of model 72-mer-2′-O-Me-oligoribonucleotide L-OM, containing the +1 frameshift site, hairpin, and pseudoknot of the mOAZ1 mRNA was 1 µM. Samples were dissolved in 50 mM Tris-HCl, pH 7.5 and 50 mM NaCl buffer. Concentration of oligonucleotide was determined after quantitating the samples by UV absorbance at λ = 260 nm. Samples were heated to 90 °C for 10 min then cooled slowly to room temperature and stored at 5 °C for at least 18 h before the measurements were performed. Denaturation curves were acquired at 260 nm for the duplexes at a rate of 0.5 °C/min, within a range of 30–90 °C. The Tm values were determined from polynomial fitting of the observed curves and taken as the temperatures corresponding to half-dissociation of complex. The first derivative of absorption with respect to temperature, dA/dT, of the melting curve was computer-generated by the GraphPad Prism 7.0 software and used for the determining of Tm.

[6] = test system: DU145 cells; experiment: Intracellular polyamine and analogue concentrations in DU145 cells (HPLC); format: cell-based; conditions: 4 h, 100 µM analogue, 1 mM AG
Experimental: The DU145 cell line was obtained from American Type Culture Collection, Manassas, VA, USA. OAZ1-overexpressing DU145 cells were generated as described earlier. The cells were cultured in humidified atmosphere at +37 °C, 10% CO2 in high-glucose Dulbecco’s Modified Eagle’s Medium supplemented with 10% heat-inactivated fetal bovine serum, 2 mM L-glutamine, and 50 μg/mL gentamycin. The cells were lysed in a buffer containing 50 mM potassium phosphate, pH 7.2, 0.1 mM EDTA, 0.1% Triton X-100, 1 mM dithiothreitol (DTT), and Complete EDTA-free protease inhibitor (Roche Diagnostics, Basel, Switzerland). Aliquots of the lysate were taken for polyamine measurement, and the rest was centrifuged at 13,000 rpm for 20 min at +4 °C. The supernatant was used for enzyme assays and Western blotting.
Polyamines were measured with HPLC according to the published method. Acid-precipitated pellets were dissolved to 0.1 M NaOH, and the amount of DNA was measured using the PicoGreen reagent (Invitrogen) according to manufacturer’s instructions using dilutions of calf thymus DNA (Sigma-Aldrich) as standard curve. Protein concentrations were measured using Bio-Rad protein kit with dilutions of bovine serum albumin (Bio-Rad, Hercules, CA, USA) as standards. ODC activities were measured from the cytosolic fractions as described earlier. For immunoblotting of OAZ1, 20–50 μg of total protein was separated on a 15% SDS-polyacrylamide gel, transferred to a membrane (Immobilon FL, Millipore, Burlington, MA, USA), and immunoblotted with rabbit anti-OAZ1 antibody (a kind gift from Prof. Olli Jänne, University of Helsinki, Finland) and rabbit antiactin (Santa Cruz Biotechnology, cat no sc-1616, used at 1:1000 dilution in 5% nonfat dry milk/PBS-Tween). The secondary antibody used was goat antirabbit (Santa Cruz Biotechnology, Dallas, TX, USA, cat no sc-2004, used at 1:10,000 dilution).

[7] = polyamine concentration 20 μM, without polyamine 65.5±0.6

T1 sequence (P54369 whole entry): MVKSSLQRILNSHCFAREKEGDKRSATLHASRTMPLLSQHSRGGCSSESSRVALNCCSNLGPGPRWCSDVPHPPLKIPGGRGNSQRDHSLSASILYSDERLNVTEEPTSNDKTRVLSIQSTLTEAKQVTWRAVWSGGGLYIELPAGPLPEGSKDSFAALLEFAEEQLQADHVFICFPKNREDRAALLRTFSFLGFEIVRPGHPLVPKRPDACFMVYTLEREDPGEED

Compound	Formation of (mOAZ1)2-Polyamine complex / dimerization [1]	Substrate of spermine synthase (SpmSy) [2]	Frameshifting activity ([3]; 0.25 mM in medium)	Frameshifting activity ([3]; 2.0 mM and 4.0 mM in medium)	Substrate of SSAT [4]	Tm [5, 7] [°C]	Tm ([5]; polyamine concentration 50 μM) [°C]	Tm ([5]; polyamine concentration 200 μM) [°C]	Intracellular Analogue [6] [pmol/µg DNA]	Intracellular N1-AcSpd [6] [pmol/µg DNA]	Intracellular Put [6] [pmol/µg DNA]	Intracellular Spd [6] [pmol/µg DNA]	Intracellular Spm [6] [pmol/µg DNA]	Spd + MeSpd [6] [pmol/µg DNA]	Spd + Spm + MeSpd [6] [pmol/µg DNA]	Total polyamines [6] [pmol/µg DNA]	Frameshifting activity ([3]; all concentrations tested (0.25-4 mM))	Tm lower compared with Spd and the other analogues [5]
CC(N)CCNCCCCN (stereo not shown) [1-MeSpd]	dimeric and monomeric complexes	is a substrate of spermine synthase	about the same as Spd	weaker inducers of the frameshifting than Spd	not a substrate of SSAT	73.0±0.4	74.0±0.3	80.2±0.6	170 ± 9.7	7.1 ± 0.2	9.5 ± 0.5	62.0 ± 3.9	74.0 ± 7.2	232	306	323		
CC(CN)CNCCCCN (stereo not shown) [2-MeSpd]	only the band corresponding to mOAZ1 itself was observed	substrate of both SSAT and SpmSy			substrate of both SSAT and SpmSy	70.5±0.5	73.4±0.4	77.5±0.5	126 ± 14.5	4.9 ± 0.3	21.1 ± 0.7	70.2 ± 2.3	83.5 ± 6.8	196	279	306	substantially weaker inducer of +1 frameshift event than the other compounds	2–3 °C
CC(CCN)NCCCCN (stereo not shown) [3-MeSpd]	dimeric and monomeric complexes	not a substrate of either SSAT or SpmSy		weaker inducers of the frameshifting than Spd	not a substrate of either SSAT or SpmSy	71.9±0.5	75.2±0.4	79.4±0.5		5.9 ± 1.1	11.1 ± 0.2	65.3 ± 3.9	78.4 ± 5.8	168		264		
NCCCCNCCCN [Spd, spermidine]	induce dimerization of OAZ1					73.7±0.6	75.3±0.4	79.7±1.1										
